Patent US6235717A, “Pharmaceutical compounds” (Glaxo Wellcome Inc., priority 1993, dated 2001)
pIC50: −log10 of the molar value. Non-standard residues stand in square brackets, D forms with d. Residues, ends and D or L forms follow the SMILES beside them. *: point of attachment. Phe(4-Br) = N[CH](Cc1ccc(Br)cc1)C(=O)O; Cha = N[CH](CC1CCCCC1)C(=O)O; Cbz = O=C(OCc1ccccc1)*; Bn = c1ccc(C*)cc1

Target: endothelin converting enzyme (ECE) (Sus scrofa, UniProt F1SU04)
Experiment: "ECE" assay with porcine aortic "ECE" prep, fluorogenic substrate Suc-Ile-Ile-Trp-MCA
Type: biochemical
Conditions: porcine aortic endothelial cell ECE prep; 80 μM Suc-Ile-Ile-Trp-MCA; 15-20 min preincubation; overnight at 37° C.; pH 7.0; AMC fluorescence
Procedure: IC50 values were determined as follows:
Porcine Aortic "ECE" Prep
Porcine aortas (22-25) were obtained fresh from a local slaughterhouse and delivered in cold PBS on ice. The aortas were cut open, rinsed with cold PBS and the endothelial cell layer scraped into cold PBS using a scalpel. The endothelial cells were pelleted by centrifugation, rinsed once with cold PBS, and repelleted. The pellet was lysed by addition of 10 volumes of 10 mM Tris-HCl, pH 7.0, containing protease inhibitors and DTS, followed by brief sonication and homogenization. The lysate was centrifuged at 100,000 g for 1 hour and the supernatant applied to a MONOQ FPLC anion exchange column equilibrated in 10 mM Tris-HCl, pH 7.0 (buffer A) which was then developed with an increasing gradient of NaCl in buffer A. The active fractions were aliquoted and stored at -70° C.
The ECE assay was performed in 96-well microplates in a total volume of 200μ/well. The assay cocktail contains 100 mM Tris-HCl, pH 7.0, 20 mM CaCl2, 80 μM substrate (Suc-Ile-Ile-Trp-MCA), enzyme and test compounds. The test compounds were preincubated with the enzyme for 15-20 minutes before initiation of the assay by addition of the substrate. The assay was incubated overnight at 37° C. and the fluorescence intensity caused by the release of AMC was determined using a fluorescence microplate reader (EX360 nm/EM460 nm). IC50 values for compounds were determined by constructing concentration-effect curves for the inhibition of enzyme activity. Concentrations on the linear portion of the inhibition curve were used to determine the IC50 utilizing a Hill plot.

Sequence of endothelin converting enzyme (ECE) (F1SU04 entry or part of it): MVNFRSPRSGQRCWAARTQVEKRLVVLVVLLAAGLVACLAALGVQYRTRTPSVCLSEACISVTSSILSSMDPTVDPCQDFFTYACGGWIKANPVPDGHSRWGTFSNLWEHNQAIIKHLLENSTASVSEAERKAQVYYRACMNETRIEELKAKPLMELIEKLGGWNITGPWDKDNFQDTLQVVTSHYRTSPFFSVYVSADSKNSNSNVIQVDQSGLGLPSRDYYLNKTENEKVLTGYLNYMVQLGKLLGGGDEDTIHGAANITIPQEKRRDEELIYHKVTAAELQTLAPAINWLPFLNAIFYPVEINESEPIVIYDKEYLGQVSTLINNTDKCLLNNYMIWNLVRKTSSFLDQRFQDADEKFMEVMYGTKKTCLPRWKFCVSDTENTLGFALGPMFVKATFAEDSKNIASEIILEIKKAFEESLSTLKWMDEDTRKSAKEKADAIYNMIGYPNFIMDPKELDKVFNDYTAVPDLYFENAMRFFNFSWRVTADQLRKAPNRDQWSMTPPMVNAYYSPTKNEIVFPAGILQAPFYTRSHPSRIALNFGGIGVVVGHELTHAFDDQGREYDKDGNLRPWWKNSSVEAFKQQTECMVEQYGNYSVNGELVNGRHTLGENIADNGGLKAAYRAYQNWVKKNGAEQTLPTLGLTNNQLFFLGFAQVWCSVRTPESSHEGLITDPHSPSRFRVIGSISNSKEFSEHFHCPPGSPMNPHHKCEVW

Molecule	pIC50
CC[C@H](C)[C@H](NC(=O)OCc1ccccc1)C(=O)N[C@H](C(=O)NC(CNC(=O)CCN1C(=O)C=CC1=O)Cc1c[nH]c2ccccc12)[C@@H](C)CC (stereo partly drawn) [Example 83, N-(benzyloxy)carbonyl-L-isoleucyl-L-isoleucine-L-N-[1-[(3-maleimidopropionamido]methyl]-2-(1H-indol-3-yl)ethyl]amide]	6.00
CC[C@H](C)[C@H](NC(=O)OCc1ccccc1)C(=O)N[C@H](C(=O)N[C@H](CNC(=O)CN1C(=O)C=CC1=O)Cc1c[nH]c2ccccc12)[C@@H](C)CC [Example 84]	6.00
CC[C@H](C)[C@H](NC(=O)OCc1ccccc1)C(=O)N[C@H](C(=O)NC(CNC(=O)CCl)Cc1c[nH]c2ccccc12)[C@@H](C)CC (stereo partly drawn) [Example 85, N-(benzyloxy)carbonyl-L-isoleucyl-L-isoleucine-L-N-[1-[(2-chloroacetamido]methy]-2-(1H-indol-3-yl)ethyl]amide]	5.00
CC[C@H](C)[C@H](NC(=O)OCc1ccccc1)C(=O)N[C@H](C(=O)NC(CNC(=O)CO)Cc1c[nH]c2ccccc12)[C@@H](C)CC (stereo partly drawn) [Example 86, N-(benzyloxy)carbonyl-L-isoleucyl-L-isoleucine-L-N-[1-[(2-hydroxyacetamido]methyl]-2-(1H-indol-3-yl)ethyl]amide]	5.00
NC(=O)NN=CC(Cc1c[nH]c2ccccc12)NC(=O)[C@H](Cc1c[nH]c2ccccc12)NC(=O)[C@H](Cc1c[nH]c2ccccc12)NC(=O)CCCCCNC(=O)CCCCC1SCC2NC(=O)NC21 (stereo partly drawn) [Example 87, N-[[[5-(hexahydro-2-oxo-1H-thieno[3,4-d]imidazol-4-yl)valeramido]hexanoyl]-L-tryptophanyl-L-tryptophan-L-N-[1-semicarbazonomethyl]2-(1H-indol-3-yl)ethyl]amide]	7.22
CC[C@H](C)[C@H](NC(=O)OCc1ccccc1)C(=O)N[C@H](C(=O)NC(Cc1ccccc1)C(=O)C(=O)O)[C@@H](C)CC (stereo partly drawn) [Example 88]	6.22
CC[C@H](C)[C@H](NC(=O)CCCCc1ccccc1)C(=O)N[C@H](C(=O)NC(C=O)Cc1c[nH]c2ccccc12)[C@@H](C)CC (stereo partly drawn) [Example 89]	7.30
CC[C@H](C)[C@H](NC(=O)CCOc1ccccc1)C(=O)N[C@H](C(=O)N[C@H](C=O)Cc1c[nH]c2ccccc12)[C@@H](C)CC [Example 90]	7.22
O=C[C@H](Cc1c[nH]c2ccccc12)NC(=O)[C@H](Cc1c[nH]c2ccccc12)NC(=O)[C@H](Cc1c[nH]c2ccccc12)NC(=O)CCCCC1SCC2NC(=O)NC21 (stereo partly drawn) [Example 91, N-[[5-(hexahydro-2-oxo-1H-thieno[3,4-d]imidazol-4-yl)pentanoyl]-L-tryptophanyl-L-tryptophan-L-N-[1-formyl]2-(1H-indol-3-yl)ethyl]amide]	8.30
COC(OC)[C@H](Cc1c[nH]c2ccccc12)NC(=O)[C@H](Cc1cccc2ccccc12)NC(=O)[C@H](Cc1ccc(Br)cc1)NC(=O)CCCCC1SCC2NC(=O)NC21 (stereo partly drawn) [Example 92, N-[[5-(hexahydro-2-oxo-1H-thieno[3,4-d]imidazol-4-yl)pentanoyl]-L-p-bromophenylalanyl-L-1-naphthylalanyl-L-N-[1-dimethoxymethyl]2-(1H-indol-3-yl)ethyl]amide]	6.00
O=CC(Cc1c[nH]c2ccccc12)NC(=O)[C@H](Cc1cccc2ccccc12)NC(=O)[C@H](Cc1ccc(Br)cc1)NC(=O)CCCCC1SCC2NC(=O)NC21 (stereo partly drawn) [Example 93, N-[[5-(hexahydro-2-oxo-1H-thieno[3,4-d]imidazol-4-yl)pentanoyl]-L-p-bromophenylalanyl-L-1-naphthylalanyl-L-N-[1-formyl]2-(1H-indol-3-yl)ethyl]amide]	8.70
O=C(N[C@@H](Cc1ccc(Br)cc1)C(=O)N[C@@H](Cc1cccc2ccccc12)C(=O)NC(Cc1ccccc1)C(=O)C1CO1)OCc1ccccc1 (stereo partly drawn) [Example 94]	8.22
CC[C@H](C)[C@H](NC(=O)OCc1ccccc1)C(=O)N[C@H](C(=O)NC(Cc1c[nH]c2ccccc12)CN1C(=O)C=CC1=O)[C@@H](C)CC (stereo partly drawn) [Example 95, N-[(benzyloxy)carbonyl]-L-isoleucyl-L-isoleucine-L-N-[1-(N-maleimidomethyl)-2-(1H-indol-3-yl)ethyl]amide]	6.00
CC[C@H](C)[C@H](NC(=O)OCc1ccccc1)C(=O)N[C@H](C(=O)NC(Cc1ccccc1)C(=O)C(=O)C(=O)OC)[C@@H](C)CC (stereo partly drawn) [Example 96, N-[(benzyloxy)carbonyl]-L-isoleucyl-L-isoleucine-L-N-[1-(3-methoxycarbonyloxalyl]2-(phenyl)ethyl]amide]	5.00
O=CC(Cc1ccc(Br)cc1)NC(=O)C(Cc1ccc(OCc2ccccc2)cc1)NC(=O)C(CC1CCCCC1)NC(=O)OCc1ccccc1 (stereo not drawn) [Example 97, N-Benzyloxycarbonyl-S-cyclohexylalanyl-S-(O-benzyl)tyrosyl-1-S-formyl-1-(4-bromophenylmethyl)-methylamide] (Cbz-[Cha]-Tyr(Bn)-[Phe(4-Br)]-aldehyde; configuration not given here)	5.00
O=C[C@H](Cc1ccc(Br)cc1)NC(=O)[C@H](Cc1ccc(OCc2ccccc2)cc1)NC(=O)[C@H](Cc1ccc(OCc2ccccc2)cc1)NC(=O)OCc1ccccc1 [Example 98, N-Benzyloxycarbonyl-S-(O-benzyl)tyrosyl-S-(O-benzyl)tyrosyl-1-S-formyl-1-(4-bromophenylmethyl)-methylamide] (Cbz-Tyr(Bn)-Tyr(Bn)-[Phe(4-Br)]-aldehyde)	6.00
CCOc1ccc(CC(NC(=O)C(Cc2ccc(OCc3ccccc3)cc2)NC(=O)OCc2ccccc2)C(=O)NC(C=O)Cc2ccc(Br)cc2)cc1 (stereo not drawn) [Example 99, N-Benzyloxycarbonyl-S-(O-benzyl)tyrosyl-S-(O-ethyl)tyrosyl-1-S-formyl-1-(4-bromophenylmethyl)-methylamide] (Cbz-Tyr(Bn)-Tyr(Et)-[Phe(4-Br)]-aldehyde; configuration not given here)	7.70
CCOc1ccc(C[C@H](NC(=O)OCc2ccccc2)C(=O)N[C@@H](Cc2ccc(OCc3ccccc3)cc2)C(=O)N[C@H](C=O)Cc2ccc(Br)cc2)cc1 [Example 100, N-Benzyloxycarbonyl-S-(O-ethyl)tyrosyl-S-(O-benzyl)tyrosyl-1-S-formyl-1-(4-bromophenylmethyl)-methylamide] (Cbz-Tyr(Et)-Tyr(Bn)-[Phe(4-Br)]-aldehyde)	7.22
N-(3-Phenylpropionyl)-L-isoleucyl-L_isoleucine-L-N-[1-formyl]2-(1H-indol-3- yl)ethyl]amide [Example 59]	7.00
N-(benzyloxy)carbonyl-L-isoleucyl-L-isoleucine-L-N[1-[[(5-nitro-2-pyridyl)dithio]methyl]-2-(1H-indol-3-yl)ethyl]amide [Example 57]	6.00
N-Benzloxycarbonyl-L-isoleucyl-L-isoleucine-L-N-[1-ethoxalyl]2-(phenyl)ethyl]amide [Example 53]	5.00
N-Benzyloxycarbonyl-L-isoleucyl-L-isoleucine-L-N-[1-[2-oxiranylcarbonyl]-2- (phenyl)ethyl]amide [Example 45]	6.70
N-Benzyloxycarbonyl-L-isoleucyl-L-isoleucine-L-N-[1-formylhydroxymethyl-2-(phenylethyl]amide) [Example 47]	5.30
N-Benzyloxycarbonyl-L-isoleucyl-L-isoleucine-L-N-[1-glyoxyloyl-2-(phenyl)ethyl]amide [Example 46]	6.10
